Test system: gastric emptying in rats
Test: Gastric emptying in rats (phenol red gel gavage)
Type: in vivo, Male Harlan Sprague Dawley (HSD) rats
Method: This experiment followed a modification of the method of Scarpignato, et al., Arch.
Male Harlan Sprague Dawley (HSD) rats were used.
The determination of gastric emptying by the method described below was performed after a fast of −20 hours to ensure that the stomach contained no chyme that would interfere with spectrophotometric absorbance measurements.
Twenty minutes after gavage, rats were anesthetized using 5% halothane, the stomach exposed and clamped at the pyloric and lower esophageal sphincters using artery forceps, removed and opened into an alkaline solution which was made up to a fixed volume. Stomach content was derived from the intensity of the phenol red in the alkaline solution, measured by absorbance at a wavelength of 560 nm. In separate experiments on 7 rats, the stomach and small intestine were both excised and opened into an alkaline solution. […] To account for a maximal dye recovery of less than 100%, percent of stomach contents remaining after 20 min were expressed as a fraction of the gastric contents recovered from control rats sacrificed immediately after gavage in the same experiment. Percent gastric contents remaining=(absorbance at 20 min)/(absorbance at 0 mm)×100.
In baseline studies, with no drug treatment, gastric emptying over 20 min was determined.

## exendin-4 acid: exendin agonist; synthesized according to standard peptide synthesis methods
Conscious rats, gastric contents remaining 20 min after gavage, dose-response
  EC50 (inhibition of gastric emptying): 0.12 µg
rats, FIG. 6 and Table II
  Inhibition of gastric emptying (in words): potent inhibitors of gastric emptying
